Experimental data from patent publication US9649295B2, “Chemical inhibitors of soluble adenylyl cyclase (sAC)” (Cornell Research Foundation, Inc., priority 2004, dated 2017).

How the values were obtained:
[1] = test system: CREB phosphorylation; assay: CREB phosphorylation in COS7 cells; type: cell-based; conditions: 10 μM H89 pretreatment 10 min
Description: All cell lines were grown in DME (44 mM sodium bicarbonate) supplemented with 10% FBS. Where indicated, cells were transfected using Lipofectamine 2000 (Invitrogen, Carlsbad, Calif.) as per the manufacturer's instructions. Cells were incubated with DNA for 5 h in OPTI-MEM (Invitrogen), and then switched to normal media. Bicarbonate starvation was conducted by changing media to bicarbonate-free DME (44 mM Hepes) supplemented with 10% FBS for at least 1 h at 37° C. under ambient air conditions. Bicarbonate stimulation consisted of returning cells to normal bicarbonate-containing media and placing them in a 5% CO2 incubator. For PGE2 or forskolin stimulation, cells were grown in normal media under 5% CO2. Stimulation was accomplished by replacing media with normal media containing 1 μM PGE2 or 10 μM forskolin. […]
For phospho-CREB immunolocalization, cells or nuclei were fixed in 4% PFA for 30 min, permeabilized in 0.1% Triton X-100 for 15 min, blocked for at least 1 h in 3% BSA, and immunostained using phospho-CREB polyclonal antisera (1:500; Cell Signaling Technologies) overnight at 4° C. […] Fluorescent images were recorded by a digital camera (Hamamatsu, Bridgewater, N.J.) connected to an inverted epifluorescent microscope (Nikon, Melville, N.Y.). […] Phospho-CREB-positive nuclei were quantified in multiple fields from each stained slide by a blinded experimenter. […]

[2] = test system: CREB phosphorylation in isolated nuclei; assay: CREB phosphorylation in isolated HeLa nuclei (P2), Western analysis; type: biochemical; conditions: for relative intensity of phospho-CREB band normalized to basal: basal 1 U, 1 mM 8-Br cAMP, 40 mM bicarbonate alone or plus 10 μM H-89 or 1 mM 8-Br-RpcAMPs
Description: The resuspended pellet and 60% OptiPrep iodixanol were mixed (30% OptiPrep final) and centrifuged at 10,000 g for 20 min. The supernatant was removed and the nuclei-enriched pellet (P2) was resuspended in TM-2 buffer without detergent.
Reactions were stopped by the addition of 20 μl of SDS sample buffer (CREB phosphorylation) or by being placed into a 100° C. heat block for 3 min (adenylyl cyclase).
(§1) For whole cell and isolated nuclei CREB phosphorylation assays, equal cell or nuclear equivalents were separated under reducing conditions using a 10% SDS-PAGE, transferred to a PVDF membrane, and probed for CREB (rabbit polyclonal antiserum; Chemicon, Temecula, Calif.) and phosphorylated CREB (rabbit polyclonal antiserum; Upstate Biotechnology, Temecula, Calif.). HRP-conjugated secondary antibodies were used, and bands were visualized using ECL. Image analysis software (model Fluorchem 8800; Alpha Innotech, San Leandro, Calif.) was used to quantitate Western results. Intensities of phospho-CREB bands were normalized to total CREB.

[3] = test system: CREB phosphorylation; assay: time course of CREB phosphorylation in Huh7 cells; type: cell-based, human; conditions: 44 mM bicarbonate DME, 1 μM PGE2
Description: FIGS. 2A-B show the time course of CREB phosphorylation by sAC and tmAC. Huh7 cells were starved for 1 h for bicarbonate and CO2 and incubated in 44 mM of normal, bicarbonate-containing DME in 5% CO2 for the time indicated (FIG. 2A) or kept in normal media and treated with 1 μM PGE2 for the time indicated (FIG. 2B). Top panels in FIGS. 2A-B show Western blots using anti-phospho-CREB antisera with phosphorylated CREB (P-CREB) protein indicated; the bottom panels show Western blot using CREB-specific antisera with total CREB (CREB) protein indicated. Shown below the Western blots in FIGS. 2A-B are graphical representations of the intensities of phospho-CREB relative to CREB normalized to the 0 min time point (first lane).
All cell lines were grown in DME (44 mM sodium bicarbonate) supplemented with 10% FBS. […]
as §1, with “HRP-conjugated secondary antibodies were used, and bands were visualized using ECL.” left out, “Intensities of phospho-CREB bands were normalized to total CREB.” left out

[4] = test system: CREB phosphorylation in isolated nuclei; assay: phospho-CREB immunocytochemistry of isolated nuclei; type: biochemical; conditions: 10 min; 40 mM sodium bicarbonate, 1 mM 8-Br cAMP, 10 μM forskolin
Description: Cell Signaling Technologies) overnight at 4° C. Staining was visualized by incubation with goat anti-rabbit Alexa Fluor 488 (Molecular Probes) for 1 h at room temperature, treated with DAPI for 5 min, and washed and mounted with gelvatol/DABCO (Sigma-Aldrich). Fluorescent images were recorded by a digital camera (Hamamatsu, Bridgewater, N.J.) connected to an inverted epifluorescent microscope (Nikon, Melville, N.Y.). Images were taken at the same exposure time and gain, and all photographic manipulations were performed equally. Phospho-CREB-positive nuclei were quantified in multiple fields from each stained slide by a blinded experimenter. […] Nuclei were also treated with DAPI to differentiate intact nuclei from membrane ghosts. DAPI-positive nuclei were scored for phosho-CREB immunofluorescence. Nuclei with detectable staining (FIG. 6A, NaHCO3) were considered positive for CREB phosphorylation, whereas nuclei with no detectable staining (FIG. 6A, Basal) were counted as negative. Multiple microscopic fields were photographed for each condition, and data was combined from three to five separate experiments.

[5] = target: catalytic portion of the sAC-like adenylyl cyclase from Candida albicans (fragment JR3) (Candida albicans, UniProt A0A1D8PR83); assay: biochemical; conditions: read-out: EC50 for stimulation of adenylyl cyclase activity of JR3
Chain of catalytic portion of the sAC-like adenylyl cyclase from Candida albicans (fragment JR3) (A0A1D8PR83 entry or part of it): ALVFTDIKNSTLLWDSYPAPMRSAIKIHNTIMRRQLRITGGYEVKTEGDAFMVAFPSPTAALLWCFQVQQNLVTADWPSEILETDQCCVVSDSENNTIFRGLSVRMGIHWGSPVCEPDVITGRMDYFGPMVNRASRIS
Source text: . FIG. 17A illustrates the bicarbonate dependence of the JR3 fragment; […];

SMILES	effect on forskolin- or bicarbonate-induced phospho-CREB immunostaining [1]	relative intensity of phospho-CREB band normalized to basal [2] [U]	reduction of CREB phosphorylation induced by bicarbonate ([2]; isolated nuclei, 40 mM bicarbonate) [%]	time to detectable increase in phospho-CREB [3] [min]	percentage of phospho-CREB-positive nuclei relative to basal [4]	increase in CREB phosphorylation ([2]; isolated nuclei, Western) [fold]	EC50 [5] [µM]
O=S(=O)(NCCNC/C=C/c1ccc(Br)cc1)c1cccc2cnccc12 [H89]	inhibited	13	50				
O=C([O-])O.[Na+] [bicarbonate, sodium bicarbonate]		27		≤ 2	at least a twofold rise	27	~200
